Results on nine compounds are retold here after ChEMBL document CHEMBL1201862, “PubChem BioAssay data set” (2004).

Structures are written as SMILES.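 Cells were grown in 96-well plates and exposed to each compound for 48 hours at five concentrations; endpoints were interpolated linearly between bracketing concentrations, or set to the highest concentration if not reached. Abbreviation: GI50, concentration required for 50% inhibition of growth.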 Activity calls are given as the source filed them. No stated cut-off is given here; in the data, active = GI50 up to about 1.1 µM and inactive = higher.

Test systems include HT-29; LOX IMVI; RPMI-8226; EKVX; BT-549; NCI-H460; ACHN; IGROV-1; HOP-92; OVCAR-5; SF-295; MDA-MB-231; K562; MCF7; SNB-19; KM12; HCT-15; UO-31; SR; SF-539.
What all share (assay): NCI anticancer screen, dose series, 48 h

For the compound `N#CC1C(=O)NC23CCCCC2C1c1ccccc1O3` (stereo not drawn), the GI50 in the experiment on HT-29, in the experiment on LOX IMVI, with RPMI-8226, in the experiment with EKVX, in the experiment with BT-549 and with NCI-H460 was > 100 µM (inactive) in each case. Besides, the GI50 is > 100 µM (inactive) in the experiment on ACHN; > 100 µM (inactive) in the experiment with IGROV-1; 0.241 µM (active) in the experiment with HOP-92; > 100 µM (inactive) in the experiment with OVCAR-5; > 100 µM (inactive) with SF-295; > 100 µM (inactive) in the experiment with MDA-MB-231. Also, the GI50 in the experiment on K562 was > 100 µM (inactive); with MCF7, > 100 µM (inactive); in the experiment on SNB-19, > 100 µM (inactive); in the experiment on KM12 it was > 100 µM (inactive); in the experiment on HCT-15 it was more than 100 µM; in the experiment with UO-31, > 100 µM (inactive).
As for `CC1(C)O[C@@H](CBr)C[C@H](C[C@H]2C[C@@H](O)C[C@@H](CCOCc3ccccc3)O2)O1`, the GI50 in the experiment on LOX IMVI was 26.2 µM (inactive); in the experiment with RPMI-8226, 27.5 µM (inactive); in the experiment with SR, 27.7 µM (inactive); in the experiment with EKVX, 17.8 µM (inactive); in the experiment on NCI-H460, 29.9 µM (inactive); with ACHN, 23.2 µM (inactive). In addition, the GI50 in the experiment with IGROV-1 is 19.8 µM (inactive); in the experiment on HOP-92, 25.5 µM (inactive); in the experiment on OVCAR-5 it was 18.7 µM (inactive); in the experiment with SF-295 it was 17 µM (inactive); in the experiment on MDA-MB-231 it was 40.3 µM (inactive); with K562, 40.2 µM (inactive). Moreover, the GI50 with MCF7 was 20 µM (inactive); in the experiment on SNB-19, 25.5 µM (inactive); in the experiment on KM12 it was 21.5 µM (inactive); in the experiment on HCT-15, 24.2 µM; with UO-31, 20.7 µM (inactive).
Take `Cc1ccc2c(c1)C(=C(C#N)C#N)CCCS2(=O)=O`: the GI50 in the experiment on HT-29, in the experiment with SF-539, with LOX IMVI, with RPMI-8226, with SR and in the experiment on EKVX was > 100 µM (inactive) throughout. The GI50 in the experiment on BT-549, in the experiment on NCI-H460, with ACHN, in the experiment on IGROV-1, in the experiment with HOP-92 and with OVCAR-5 was > 100 µM (inactive) in each case. The GI50 with SF-295 was > 100 µM (inactive); in the experiment with MDA-MB-231 it was > 100 µM (inactive); with K562 it was > 100 µM (inactive); in the experiment on SNB-19, > 100 µM (inactive); in the experiment with KM12, > 100 µM (inactive); with HCT-15, more than 100 µM. Besides, in the experiment on UO-31, the GI50 is > 100 µM (inactive).
`COc1cc(CNc2nc3cc(C(F)(F)F)ccc3nc2C(=O)O)cc(OC)c1OC`: the GI50 with SF-539 is 15.2 µM (inactive); with LOX IMVI, 31.4 µM (inactive); with SR, 33.3 µM (inactive); in the experiment with EKVX, 20.1 µM (inactive); with BT-549, 29.8 µM (inactive); in the experiment with NCI-H460, 25.4 µM (inactive). The GI50 in the experiment on ACHN is 26.4 µM (inactive); in the experiment with OVCAR-5, 49.3 µM (inactive); in the experiment with SF-295, 20.5 µM (inactive); in the experiment with K562, 28 µM (inactive); in the experiment with MCF7, 20.1 µM (inactive); in the experiment with SNB-19, 21.6 µM (inactive). Also, the GI50 in the experiment with KM12 is 24.7 µM (inactive); in the experiment with HCT-15, 29.6 µM; in the experiment with UO-31, 18.6 µM (inactive).
With `Cc1cc(Br)c(O)c(-c2cscn2)c1`, the GI50 in the experiment on HT-29 was 27.3 µM (inactive); in the experiment on SF-539 it was 20 µM (inactive); in the experiment on LOX IMVI it was 10.2 µM (inactive); with RPMI-8226 it was 4.81 µM (inactive); in the experiment with EKVX, 33.1 µM (inactive); in the experiment with BT-549, 10.9 µM (inactive). In addition, the GI50 in the experiment with NCI-H460 is 21.4 µM (inactive); with ACHN it was 14 µM (inactive); with IGROV-1 it was 22.9 µM (inactive); in the experiment with HOP-92, 19.5 µM (inactive); in the experiment with OVCAR-5 it was 20.6 µM (inactive); in the experiment on SF-295, 23.2 µM (inactive). Moreover, the GI50 with K562 is 7.64 µM (inactive); in the experiment on SNB-19, 15.2 µM (inactive); in the experiment with HCT-15 it was 5.57 µM; with UO-31 it was 12.7 µM (inactive).
Take `COC(=O)C1=CC2C(=O)c3ccccc3C1(c1ccccc1)N2C1CCCCC1` (stereo not drawn): the GI50 was 14.8 µM (inactive) with HT-29; 20.6 µM (inactive) in the experiment on SF-539; 15.5 µM (inactive) in the experiment with LOX IMVI; 34.9 µM (inactive) with EKVX; 22.6 µM (inactive) with BT-549; 14.8 µM (inactive) in the experiment with NCI-H460. Also, the GI50 with ACHN was 16.2 µM (inactive); in the experiment with IGROV-1 it was 20.1 µM (inactive); in the experiment with HOP-92 it was 22.6 µM (inactive); in the experiment on OVCAR-5 it was 32.3 µM (inactive); in the experiment on SF-295, 16 µM (inactive); with MDA-MB-231 it was 17 µM (inactive). Further, the GI50 in the experiment with K562 was 4.63 µM (inactive); in the experiment on MCF7 it was 15.6 µM (inactive); in the experiment on SNB-19, 39.9 µM (inactive); with KM12, 14.3 µM (inactive); in the experiment on HCT-15, 27 µM; in the experiment on UO-31 it was 15.1 µM (inactive).
Consider `Clc1ccc(C2=NNC(c3cccc(Cl)c3)C2)cc1` (stereo not drawn), for which the GI50 with HT-29 was 36.9 µM (inactive); with SF-539, 37.2 µM (inactive); with LOX IMVI it was 16 µM (inactive); in the experiment with RPMI-8226 it was 17.1 µM (inactive); in the experiment with SR it was 41.9 µM (inactive); in the experiment with EKVX it was 23.4 µM (inactive). Also, the GI50 with NCI-H460 is 28.5 µM (inactive); in the experiment with IGROV-1 it was 0.344 µM (active); with HOP-92, 10.8 µM (inactive); in the experiment on OVCAR-5 it was 44.8 µM (inactive); with SF-295, 29.1 µM (inactive); in the experiment on MDA-MB-231, 18.7 µM (inactive). Also, the GI50 with K562 was 37.4 µM (inactive); in the experiment with MCF7, 17.4 µM (inactive); in the experiment with SNB-19, 34.4 µM (inactive); in the experiment on KM12, 35.9 µM (inactive); in the experiment on UO-31, 1.9 µM (inactive).
For the compound `CCOC(=O)C1(C/C=C/CCl)CCCC1=O` (stereo not drawn), the GI50 with HT-29 is 24.2 µM (inactive); in the experiment on SF-539, 20.7 µM (inactive); in the experiment with LOX IMVI it was 14.9 µM (inactive); with EKVX, 19.5 µM (inactive); with BT-549, 18.2 µM (inactive); with NCI-H460, 30.1 µM (inactive). The GI50 in the experiment with ACHN was 15.3 µM (inactive); with IGROV-1, 18.3 µM (inactive); with OVCAR-5, 17.8 µM (inactive); with SF-295 it was 37.2 µM (inactive); with MDA-MB-231, 16.6 µM (inactive); in the experiment with MCF7, 16.4 µM (inactive). Further, the GI50 is 23 µM (inactive) in the experiment with SNB-19, 20 µM (inactive) in the experiment on KM12, 18.9 µM with HCT-15 and 20 µM (inactive) in the experiment with UO-31.
With `O=c1c2ccccc2n2c(S)nnc2n1-c1ccccc1`, the GI50 with HT-29, with SF-539, in the experiment on LOX IMVI, in the experiment on SR, in the experiment on EKVX and with NCI-H460 was > 100 µM (inactive) throughout. The GI50 in the experiment with ACHN, in the experiment on IGROV-1, in the experiment with OVCAR-5, with SF-295, with MDA-MB-231 and in the experiment with K562 was > 100 µM (inactive) in each case. Also, the GI50 with MCF7 was > 100 µM (inactive); in the experiment on SNB-19, > 100 µM (inactive); in the experiment on KM12, > 100 µM (inactive); in the experiment with HCT-15, more than 100 µM; with UO-31, > 100 µM (inactive).
